# Square brackets hold non-standard residues; d marks the D form. Peptide text beside a SMILES is read from it. pGlu = O=C1CC[C@@H](C(=O)O)N1
# Experiments:
# Format in all cases: in vivo
# cancer-carrying mice = test: Radiotherapeutic experiments on cancer-carrying mice; conditions: pre- or post-irradiation administration
# [1] = tested on: mice irradiated with 900R X-rays; test: Survival of mice after whole body irradiation with 900R X-rays
# Procedure: Male, 10 week-old C3H/He mice were used and groups of 10 - 15 animals each were prepared.
# The mice were subjected to whole body irradiation for 8 minutes using a X-radiation unit (manufactured by Shimazu Seisaku-sho, Shin-Ai 250 II). These animals received, once per day, subcutaneous administration of 100 µg of FTS·CH₃COOH·2H₂O as used in Example 1 for consecutive 14 days. For a pre-administered group, the administration started two days before the irradiation. For a post-administered group, the first administration was effected immediately after the irradiation. As control groups, one group which received only once subcutaneous administration of 1 KE of Picibanil immediately after the irradiation and another group which received every day administration of physiological saline were prepared.
# In the same manner as in Experimental Example 1, mice were subcutaneously administered, after X-radiation for 9 minutes, with 100 µg/day of FTS·CH₃COOH·2H₂O, once a day and twelve times in all, i.e. on the zero, 1st, 2nd, 3rd, 4th, 5th, 7th, 8th, 9th, 10th, 11th and 12th days.
# [2] = Body weight measurement of 600R-irradiated mice; conditions: for body weight (g) [Mean ± S.D.]: 600R X-ray, 100 µg/day s.c. pre-administration
# Procedure: In the same manner as in Experimental Examples 1 and 2, mice were irradiated with X-rays for 6 minutes. For a period of consecutive 14 days from 2 days before irradiation, the animals were subcutaneously administered, once a day, with 100 µg/day of FTS·CH₃COOH·2H₂O as medicament.
# The body weight of each experimental group of mice in Experimental Example 3 was measured on consecutive days for observation of changes in weight.
smiles,measurement,setting,value
"C[C@H](NC(=O)[C@@H]1CCC(=O)N1)C(=O)N[C@@H](CCCCN)C(=O)N[C@@H](CO)C(=O)N[C@@H](CCC(N)=O)C(=O)NCC(=O)NCC(=O)N[C@@H](CO)C(=O)N[C@@H](CC(N)=O)C(=O)O [medicament, pGlu-Ala-Lys-Ser-Gln-Gly-Gly-Ser-Asn] ([pGlu]AKSQGGSN-OH)",anti-cancer effect of radiotherapy,cancer-carrying mice,potentiated
same,The number of days and survivals after X-radiation 9 (days),"[1]; 900R X-rays, post-administration 100 µg/day s.c., twelve times in all (days 0-5, 7-12), day 9, 15 animals used",15
same,The number of days and survivals after X-radiation 10 (days),"[1]; 900R X-rays, post-administration 100 µg/day s.c., twelve times in all (days 0-5, 7-12), day 10, 15 animals used",13
same,The number of days and survivals after X-radiation 11 (days),"[1]; 900R X-rays, post-administration 100 µg/day s.c., twelve times in all (days 0-5, 7-12), day 11, 15 animals used",12
same,The number of days and survivals after X-radiation 12 (days),"[1]; 900R X-rays, post-administration 100 µg/day s.c., twelve times in all (days 0-5, 7-12), day 12, 15 animals used",12
same,The number of days and survivals after X-radiation 13 (days),"[1]; 900R X-rays, post-administration 100 µg/day s.c., twelve times in all (days 0-5, 7-12), day 13, 15 animals used",7
same,The number of days and survivals after X-radiation 14 (days),"[1]; 900R X-rays, post-administration 100 µg/day s.c., twelve times in all (days 0-5, 7-12), day 14, 15 animals used",4
same,The number of days and survivals after X-radiation 15 (days),"[1]; 900R X-rays, post-administration 100 µg/day s.c., twelve times in all (days 0-5, 7-12), day 15, 15 animals used",3
same,The number of days and survivals after X-radiation 16 (days),"[1]; 900R X-rays, post-administration 100 µg/day s.c., twelve times in all (days 0-5, 7-12), day 16, 15 animals used",2
same,The number of days and survivals after X-radiation 18 (days),"[1]; 900R X-rays, post-administration 100 µg/day s.c., twelve times in all (days 0-5, 7-12), day 18, 15 animals used",2
same,The number of days and survivals after X-radiation 20 (days),"[1]; 900R X-rays, post-administration 100 µg/day s.c., twelve times in all (days 0-5, 7-12), day 20, 15 animals used",2
same,The number of days and survivals after X-radiation 21 (days),"[1]; 900R X-rays, post-administration 100 µg/day s.c., twelve times in all (days 0-5, 7-12), day 21, 15 animals used",1
same,The number of days and survivals after X-radiation 23 (days),"[1]; 900R X-rays, post-administration 100 µg/day s.c., twelve times in all (days 0-5, 7-12), day 23, 15 animals used",0
same,life span extension,"[1]; 900R, 100 µg/day s.c. twelve times after X-radiation, summary of Table 2",exhibited a life span extension
same,body weight (g) [Mean ± S.D.],[2]; 1 day after irradiation,27.8±1.5 (15) g
same,body weight (g) [Mean ± S.D.],[2]; 3 days after irradiation,27.7±1.1 (15) g
same,body weight (g) [Mean ± S.D.],[2]; 5 days after irradiation,27.9±1.1 (15) g
same,body weight (g) [Mean ± S.D.],[2]; 7 days after irradiation,28.8±1.2 (10) g
same,body weight (g) [Mean ± S.D.],[2]; 9 days after irradiation,29.8±1.0 (10) g
same,body weight (g) [Mean ± S.D.],[2]; 11 days after irradiation,30.2±0.9 (10) g
same,body weight (g) [Mean ± S.D.],[2]; 13 days after irradiation,29.6±0.7 (10) g
same,body weight (g) [Mean ± S.D.],[2]; 15 days after irradiation,28.3±0.8 (10) g
same,body weight (g) [Mean ± S.D.],[2]; 17 days after irradiation,28.2±1.0 (10) g
same,body weight (g) [Mean ± S.D.],[2]; 19 days after irradiation,29.1±0.8 (10) g
same,body weight (g) [Mean ± S.D.],[2]; 29 days after irradiation,28.5±1.4 (10) g
same,body weight versus control group,"[2]; 600R X-rays, summary of Table 5",evidently weighed more than the control group
